Assay: xn = mol fraction of the nth substance listed
Conditions: 100 kPa, Liquid; for speed of sound: Frequency=3 MHz, Linear variable-path acoustic interferometer; for mass density: Pycnometric method

N#Cc1ccccc1 [benzonitrile] + C=C(C)C(=O)OC
Conditions | mass density [kg/m3] | speed of sound [m/s]
293.15 K, x1 = 0.0652 | 948.11 | 1220.4
293.15 K, x1 = 0.1303 | 952.71 | 1239.9
293.15 K, x1 = 0.1922 | 956.98 | 1258.1
293.15 K, x1 = 0.271 | 962.27 | 1279.6
293.15 K, x1 = 0.3371 | 966.59 | 1296.9
293.15 K, x1 = 0.4174 | 971.69 | 1316.8
293.15 K, x1 = 0.4872 | 976 | 1333.2
293.15 K, x1 = 0.5689 | 980.9 | 1351.4
293.15 K, x1 = 0.6398 | 985.02 | 1366.6
293.15 K, x1 = 0.7089 | 988.92 | 1381.1
293.15 K, x1 = 0.7767 | 992.63 | 1394.4
293.15 K, x1 = 0.8571 | 996.88 | 1410
293.15 K, x1 = 0.9252 | 1000.34 | 1422.4
293.15 K, x1 = 1 | 1003.99 | 1436.9
298.15 K, x1 = 0.0652 | 942.55 | 1203.9
298.15 K, x1 = 0.1303 | 947.32 | 1223.6
298.15 K, x1 = 0.1922 | 951.75 | 1241.7
298.15 K, x1 = 0.271 | 957.23 | 1263.3
298.15 K, x1 = 0.3371 | 961.71 | 1280.2
298.15 K, x1 = 0.4174 | 966.99 | 1299.9
298.15 K, x1 = 0.4872 | 971.45 | 1316.2
298.15 K, x1 = 0.5689 | 976.51 | 1334.3
298.15 K, x1 = 0.6398 | 980.77 | 1349.3
298.15 K, x1 = 0.7089 | 984.8 | 1363.6
298.15 K, x1 = 0.7767 | 988.63 | 1376.7
298.15 K, x1 = 0.8571 | 993.01 | 1392.3
298.15 K, x1 = 0.9252 | 996.57 | 1404.6
298.15 K, x1 = 1 | 1000.32 | 1418.2
303.15 K, x1 = 0.0652 | 936.99 | 1189.3
303.15 K, x1 = 0.1303 | 941.93 | 1209
303.15 K, x1 = 0.1922 | 946.52 | 1227
303.15 K, x1 = 0.271 | 952.19 | 1248.3
303.15 K, x1 = 0.3371 | 956.83 | 1265.4
303.15 K, x1 = 0.4174 | 962.29 | 1284.8
303.15 K, x1 = 0.4872 | 966.9 | 1300.8
303.15 K, x1 = 0.5689 | 972.12 | 1319
303.15 K, x1 = 0.6398 | 976.52 | 1333.8
303.15 K, x1 = 0.7089 | 980.68 | 1348
303.15 K, x1 = 0.7767 | 984.63 | 1360.9
303.15 K, x1 = 0.8571 | 989.14 | 1376
303.15 K, x1 = 0.9252 | 992.8 | 1388.2
303.15 K, x1 = 1 | 996.65 | 1400.7
308.15 K, x1 = 0.0652 | 931.43 | 1173.8
308.15 K, x1 = 0.1303 | 936.55 | 1193.9
308.15 K, x1 = 0.1922 | 941.29 | 1211.7
308.15 K, x1 = 0.271 | 947.15 | 1232.7
308.15 K, x1 = 0.3371 | 951.93 | 1249.6
308.15 K, x1 = 0.4174 | 957.57 | 1268.8
308.15 K, x1 = 0.4872 | 962.33 | 1284.7
308.15 K, x1 = 0.5689 | 967.73 | 1302.9
308.15 K, x1 = 0.6398 | 972.27 | 1317.9
308.15 K, x1 = 0.7089 | 976.56 | 1332
308.15 K, x1 = 0.7767 | 980.63 | 1345.5
308.15 K, x1 = 0.8571 | 985.27 | 1360.6
308.15 K, x1 = 0.9252 | 989.03 | 1372
308.15 K, x1 = 1 | 992.98 | 1384
313.15 K, x1 = 0.0652 | 925.87 | 1157
313.15 K, x1 = 0.1303 | 931.16 | 1177.3
313.15 K, x1 = 0.1922 | 936.06 | 1195.3
313.15 K, x1 = 0.271 | 942.12 | 1216.5
313.15 K, x1 = 0.3371 | 947.05 | 1233.2
313.15 K, x1 = 0.4174 | 952.87 | 1252.4
313.15 K, x1 = 0.4872 | 957.78 | 1268.5
313.15 K, x1 = 0.5689 | 963.35 | 1286.5
313.15 K, x1 = 0.6398 | 968.02 | 1302.2
313.15 K, x1 = 0.7089 | 972.44 | 1316.5
313.15 K, x1 = 0.7767 | 976.63 | 1330.5
313.15 K, x1 = 0.8571 | 981.4 | 1345.5
313.15 K, x1 = 0.9252 | 985.26 | 1357.2
313.15 K, x1 = 1 | 989.31 | 1368.2
318.15 K, x1 = 0.0652 | 920.31 | 1140.3
318.15 K, x1 = 0.1303 | 925.77 | 1160.8
318.15 K, x1 = 0.1922 | 930.83 | 1179
318.15 K, x1 = 0.271 | 937.08 | 1200
318.15 K, x1 = 0.3371 | 942.18 | 1216.8
318.15 K, x1 = 0.4174 | 948.18 | 1236
318.15 K, x1 = 0.4872 | 953.23 | 1251.9
318.15 K, x1 = 0.5689 | 958.96 | 1270.3
318.15 K, x1 = 0.6398 | 963.77 | 1286
318.15 K, x1 = 0.7089 | 968.31 | 1300.9
318.15 K, x1 = 0.7767 | 972.61 | 1315
318.15 K, x1 = 0.8571 | 977.51 | 1330.8
318.15 K, x1 = 0.9252 | 981.48 | 1342.4
318.15 K, x1 = 1 | 985.64 | 1352.9

C=C(C)C(=O)OCC [ethyl 2-methylpropenoate] + N#Cc1ccccc1
Conditions | mass density [kg/m3] | speed of sound [m/s]
293.15 K, x2 = 0 | 912.3 | 1196.8
293.15 K, x2 = 0.0711 | 918.32 | 1212.4
293.15 K, x2 = 0.1419 | 924.37 | 1228
293.15 K, x2 = 0.2152 | 930.7 | 1244.1
293.15 K, x2 = 0.2872 | 936.99 | 1259.8
293.15 K, x2 = 0.3568 | 943.14 | 1274.9
293.15 K, x2 = 0.4307 | 949.76 | 1290.9
293.15 K, x2 = 0.4991 | 955.96 | 1306
293.15 K, x2 = 0.5752 | 962.96 | 1323.3
293.15 K, x2 = 0.6431 | 969.29 | 1339.2
293.15 K, x2 = 0.7177 | 976.35 | 1357.7
293.15 K, x2 = 0.7773 | 982.06 | 1373
293.15 K, x2 = 0.8576 | 989.86 | 1394.7
293.15 K, x2 = 0.9289 | 996.89 | 1414.8
298.15 K, x2 = 0 | 907.18 | 1176.9
298.15 K, x2 = 0.0711 | 913.3 | 1193
298.15 K, x2 = 0.1419 | 919.45 | 1208.9
298.15 K, x2 = 0.2152 | 925.88 | 1225
298.15 K, x2 = 0.2872 | 932.27 | 1240.7
298.15 K, x2 = 0.3568 | 938.52 | 1255.7
298.15 K, x2 = 0.4307 | 945.23 | 1271.6
298.15 K, x2 = 0.4991 | 951.53 | 1286.8
298.15 K, x2 = 0.5752 | 958.64 | 1304.2
298.15 K, x2 = 0.6431 | 965.07 | 1320
298.15 K, x2 = 0.7177 | 972.24 | 1338.5
298.15 K, x2 = 0.7773 | 978.04 | 1354
298.15 K, x2 = 0.8576 | 985.97 | 1375.9
298.15 K, x2 = 0.9289 | 993.11 | 1396.3
303.15 K, x2 = 0 | 902.06 | 1157.6
303.15 K, x2 = 0.0711 | 908.28 | 1174.2
303.15 K, x2 = 0.1419 | 914.53 | 1190.4
303.15 K, x2 = 0.2152 | 921.06 | 1206.4
303.15 K, x2 = 0.2872 | 927.55 | 1222.1
303.15 K, x2 = 0.3568 | 933.89 | 1237.4
303.15 K, x2 = 0.4307 | 940.7 | 1253.4
303.15 K, x2 = 0.4991 | 947.1 | 1268.4
303.15 K, x2 = 0.5752 | 954.32 | 1285.8
303.15 K, x2 = 0.6431 | 960.85 | 1301.7
303.15 K, x2 = 0.7177 | 968.13 | 1320.4
303.15 K, x2 = 0.7773 | 974.02 | 1336
303.15 K, x2 = 0.8576 | 982.07 | 1358.2
303.15 K, x2 = 0.9289 | 989.33 | 1379.1
308.15 K, x2 = 0 | 896.94 | 1139.4
308.15 K, x2 = 0.0711 | 903.26 | 1156.4
308.15 K, x2 = 0.1419 | 909.61 | 1172.7
308.15 K, x2 = 0.2152 | 916.24 | 1188.9
308.15 K, x2 = 0.2872 | 922.82 | 1204.6
308.15 K, x2 = 0.3568 | 929.26 | 1219.8
308.15 K, x2 = 0.4307 | 936.17 | 1236
308.15 K, x2 = 0.4991 | 942.67 | 1251.3
308.15 K, x2 = 0.5752 | 949.99 | 1268.7
308.15 K, x2 = 0.6431 | 956.62 | 1284.7
308.15 K, x2 = 0.7177 | 964.02 | 1303.5
308.15 K, x2 = 0.7773 | 970 | 1319.3
308.15 K, x2 = 0.8576 | 978.17 | 1341.8
308.15 K, x2 = 0.9289 | 985.54 | 1362.6
313.15 K, x2 = 0 | 891.83 | 1121.5
313.15 K, x2 = 0.0711 | 898.24 | 1138.9
313.15 K, x2 = 0.1419 | 904.68 | 1155.3
313.15 K, x2 = 0.2152 | 911.41 | 1171.7
313.15 K, x2 = 0.2872 | 918.09 | 1187.4
313.15 K, x2 = 0.3568 | 924.62 | 1202.7
313.15 K, x2 = 0.4307 | 931.64 | 1218.9
313.15 K, x2 = 0.4991 | 938.23 | 1234.1
313.15 K, x2 = 0.5752 | 945.66 | 1251.8
313.15 K, x2 = 0.6431 | 952.39 | 1268.2
313.15 K, x2 = 0.7177 | 959.9 | 1287.3
313.15 K, x2 = 0.7773 | 965.97 | 1303.5
313.15 K, x2 = 0.8576 | 974.27 | 1326.1
313.15 K, x2 = 0.9289 | 981.75 | 1347.2
318.15 K, x2 = 0 | 886.71 | 1104.6
318.15 K, x2 = 0.0711 | 893.22 | 1122.5
318.15 K, x2 = 0.1419 | 899.75 | 1139.1
318.15 K, x2 = 0.2152 | 906.58 | 1155.6
318.15 K, x2 = 0.2872 | 913.35 | 1171.4
318.15 K, x2 = 0.3568 | 919.98 | 1186.5
318.15 K, x2 = 0.4307 | 927.11 | 1202.7
318.15 K, x2 = 0.4991 | 933.79 | 1217.9
318.15 K, x2 = 0.5752 | 941.33 | 1235.6
318.15 K, x2 = 0.6431 | 948.16 | 1252.3
318.15 K, x2 = 0.7177 | 955.78 | 1271.8
318.15 K, x2 = 0.7773 | 961.94 | 1288.2
318.15 K, x2 = 0.8576 | 970.37 | 1311.3
318.15 K, x2 = 0.9289 | 977.96 | 1332.3

Reference: the NIST ThermoML archive (doi:10.1016/j.jct.2018.12.031)
